Tested on: MV-4-11 cells
Assay: Gene expression microarray analysis (Affymetrix PrimeView) and GSEA
Type: cell-based, human
Parameters: RFU PODN (11730768_x_at) / Fold change /veh PODN (11730768_x_at) / RFU LINC00158 (11744669_a_at) / Fold change /veh LINC00158 (11744669_a_at) / RFU DUSP10 (11751237_a_at) / Fold change /veh DUSP10 (11751237_a_at) / RFU ID3 (11757404_x_at) / Fold change /veh ID3 (11757404_x_at) / RFU PLEKHG5 (11737974_s_at) / Fold change /veh PLEKHG5 (11737974_s_at) / RFU LRRC4B (11730491_at) / Fold change /veh LRRC4B (11730491_at) / RFU GIMAP4 (11747438_a_at) / Fold change /veh GIMAP4 (11747438_a_at) / RFU KRT8 (11758183_x_at) / Fold change /veh KRT8 (11758183_x_at) / RFU CNN1 (11734310_a_at) / Fold change /veh CNN1 (11734310_a_at) / RFU VPS37D (11726825_at) / Fold change /veh VPS37D (11726825_at) / RFU C10orf10 (11716522_x_at) / Fold change /veh C10orf10 (11716522_x_at) / RFU KIR2DL2 /// KIR2DL4 /// KIR2DL5A /// KIR2DL5B /// KIR2DS1 /// KIR2DS2 /// KIR2DS3 /// KIR2DS4 /// KIR3DL3 /// KIR3DL3 /// KIR3DS1 (11738374_at) / Fold change /veh KIR2DL2 /// KIR2DL4 /// KIR2DL5A /// KIR2DL5B /// KIR2DS1 /// KIR2DS2 /// KIR2DS3 /// KIR2DS4 /// KIR3DL3 /// KIR3DL3 /// KIR3DS1 (11738374_at) / RFU C1QL1 (11718748_at) / Fold change /veh C1QL1 (11718748_at) / RFU TMPRSS4 (11747572_a_at) / Fold change /veh TMPRSS4 (11747572_a_at) / RFU HAMP (11756126_x_at) / Fold change /veh HAMP (11756126_x_at) / RFU RNFT2 (11725882_a_at) / Fold change /veh RNFT2 (11725882_a_at) / RFU NR4A2 (11747474_a_at) / Fold change /veh NR4A2 (11747474_a_at) / RFU ABCC12 (11746883_a_at) / Fold change /veh ABCC12 (11746883_a_at) / RFU TMEM136 (11760407_x_at) / Fold change /veh TMEM136 (11760407_x_at) / RFU CLDN22 /// WWC2 (11732394_at) / Fold change /veh CLDN22 /// WWC2 (11732394_at) / RFU HLA-DPB1 (11760878_x_at) / Fold change /veh HLA-DPB1 (11760878_x_at) / RFU SPINT1 (11716480_a_at) / Fold change /veh SPINT1 (11716480_a_at) / RFU GAP43 (11754022_s_at) / Fold change /veh GAP43 (11754022_s_at) / RFU A4GNT (11735810_at) / Fold change /veh A4GNT (11735810_at) / RFU PRB3 (11715151_x_at) / Fold change /veh PRB3 (11715151_x_at) / RFU TUBB4B (11761932_at) / Fold change /veh TUBB4B (11761932_at) / RFU CAPN14 (11732068_a_at) / Fold change /veh CAPN14 (11732068_a_at) / RFU TMCC2 (11721928_a_at) / Fold change /veh TMCC2 (11721928_a_at) / RFU IRGQ (11745062_a_at) / Fold change /veh IRGQ (11745062_a_at) / RFU FAM174B (11720279_a_at) / Fold change /veh FAM174B (11720279_a_at) / RFU TMPRSS4 (11748680_a_at) / Fold change /veh TMPRSS4 (11748680_a_at) / RFU FAM212B (11763350_a_at) / Fold change /veh FAM212B (11763350_a_at) / RFU PLEKHG5 (11743358_a_at) / Fold change /veh PLEKHG5 (11743358_a_at) / RFU ZSCAN30 (11745921_a_at) / Fold change /veh ZSCAN30 (11745921_a_at) / RFU CMKLR1 (11741424_a_at) / Fold change /veh CMKLR1 (11741424_a_at) / RFU LOC101060620 /// MAPK8IP1 (11723275_at) / Fold change /veh LOC101060620 /// MAPK8IP1 (11723275_at) / RFU SPTSSB (11747773_x_at) / Fold change /veh SPTSSB (11747773_x_at) / RFU PRSS12 (11739890_at) / Fold change /veh PRSS12 (11739890_at) / RFU BIN1 (11741810_x_at) / Fold change /veh BIN1 (11741810_x_at) / RFU WNT11 (11732464_a_at) / Fold change /veh WNT11 (11732464_a_at) / RFU C10orf10 (11716521_a_at) / Fold change /veh C10orf10 (11716521_a_at) / RFU C5orf56 (11738089_at) / Fold change /veh C5orf56 (11738089_at) / RFU CYB561 (11721691_x_at) / Fold change /veh CYB561 (11721691_x_at) / RFU ANKRD19P (11752326_a_at) / Fold change /veh ANKRD19P (11752326_a_at) / RFU OR2T12 /// OR2T33 /// OR2T8 (11738714_s_at) / Fold change /veh OR2T12 /// OR2T33 /// OR2T8 (11738714_s_at) / RFU VCAN (11748164_a_at) / Fold change /veh VCAN (11748164_a_at) / RFU JSRP1 (11732532_at) / Fold change /veh JSRP1 (11732532_at) / RFU KRTAP10-11 (11738290_x_at) / Fold change /veh KRTAP10-11 (11738290_x_at) / RFU MYO3A (11730013_a_at) / Fold change /veh MYO3A (11730013_a_at) / RFU EBF3 (11725865_a_at) / Fold change /veh EBF3 (11725865_a_at) / RFU CAMK2N1 (11719241_x_at) / Fold change /veh CAMK2N1 (11719241_x_at) / RFU C5orf56 (11738088_a_at) / Fold change /veh C5orf56 (11738088_a_at) / RFU OLFML3 (11715873_a_at) / Fold change /veh OLFML3 (11715873_a_at) / RFU LOC100653217 /// NTM (11731650_a_at) / Fold change /veh LOC100653217 /// NTM (11731650_a_at) / RFU MAPK11 (11762145_a_at) / Fold change /veh MAPK11 (11762145_a_at) / RFU FIZ1 (11724087_x_at) / Fold change /veh FIZ1 (11724087_x_at) / RFU OASL (11726364_x_at) / Fold change /veh OASL (11726364_x_at) / RFU SOX15 (11748057_x_at) / Fold change /veh SOX15 (11748057_x_at) / RFU CD79A (11719716_a_at) / Fold change /veh CD79A (11719716_a_at) / RFU HIST1H1D (11736915_at) / Fold change /veh HIST1H1D (11736915_at) / RFU CASKIN2 (11723855_a_at) / Fold change /veh CASKIN2 (11723855_a_at) / RFU LOC730098 (11760151_x_at) / Fold change /veh LOC730098 (11760151_x_at) / RFU OR4N2 (11742367_at) / Fold change /veh OR4N2 (11742367_at) / RFU PRRT2 (11749266_a_at) / Fold change /veh PRRT2 (11749266_a_at) / RFU SNX32 (11753110_a_at) / Fold change /veh SNX32 (11753110_a_at) / RFU CDHR5 (11726645_a_at) / Fold change /veh CDHR5 (11726645_a_at) / RFU RCAN1 (11760418_a_at) / Fold change /veh RCAN1 (11760418_a_at) / RFU FAM167A (11723789_a_at) / Fold change /veh FAM167A (11723789_a_at) / RFU FAM26E (11764081_at) / Fold change /veh FAM26E (11764081_at) / RFU ISYNA1 (11749810_s_at) / Fold change /veh ISYNA1 (11749810_s_at) / RFU ACY1 (11761880_at) / Fold change /veh ACY1 (11761880_at) / RFU 11764098_at / Fold change /veh 11764098_at / RFU SAMD14 (11745864_x_at) / Fold change /veh SAMD14 (11745864_x_at) / RFU NPB (11741838_a_at) / Fold change /veh NPB (11741838_a_at) / RFU TMPRSS6 (11731388_a_at) / Fold change /veh TMPRSS6 (11731388_a_at) / RFU KRTAP10-2 (11738614_at) / Fold change /veh KRTAP10-2 (11738614_at) / RFU ARHGAP8 /// PRR5-ARHGAP8 (11727945_x_at) / Fold change /veh ARHGAP8 /// PRR5-ARHGAP8 (11727945_x_at) / RFU KRTAP5-7 /// NADSYN1 (11734609_at) / Fold change /veh KRTAP5-7 /// NADSYN1 (11734609_at) / RFU RASL12 (11751679_a_at) / Fold change /veh RASL12 (11751679_a_at) / RFU CDKN2B (11736163_a_at) / Fold change /veh CDKN2B (11736163_a_at) / RFU PRF1 (11729649_at) / Fold change /veh PRF1 (11729649_at) / RFU, ZNF638 /// ZNF638-IT1 / Fold change vs veh, ZNF638 /// ZNF638-IT1 / RFU, PANK3 / Fold change vs veh, PANK3 / RFU, SH3YL1 / Fold change vs veh, SH3YL1 / RFU, ZEB2 / Fold change vs veh, ZEB2 / RFU, NRIP1 / Fold change vs veh, NRIP1 / RFU, PTTG1IP / Fold change vs veh, PTTG1IP / RFU, CAPN2 / Fold change vs veh, CAPN2 / RFU, MED14 / Fold change vs veh, MED14 / RFU, SNORA58 / Fold change vs veh, SNORA58 / RFU, C1orf63 / Fold change vs veh, C1orf63 / RFU, LRRFIP1 / Fold change vs veh, LRRFIP1 / RFU, NDUFAF7 / Fold change vs veh, NDUFAF7 / RFU, SLC12A2 / Fold change vs veh, SLC12A2 / RFU, IBTK / Fold change vs veh, IBTK / RFU, ESF1 / Fold change vs veh, ESF1 / Fold change vs veh, TMEM50B / RFU, TAOK1 / Fold change vs veh, TAOK1 / RFU, ACBD3 / Fold change vs veh, ACBD3 / RFU, TMA16 / Fold change vs veh, TMA16 / RFU, RWDD3 / Fold change vs veh, RWDD3 / RFU, BCAT1 / Fold change vs veh, BCAT1 / RFU, EDEM3 / Fold change vs veh, EDEM3 / RFU, TMEM33 / Fold change vs veh, TMEM33 / RFU, WDR75 / Fold change vs veh, WDR75 / RFU, AHCTF1 / Fold change vs veh, AHCTF1 / RFU, TFRC / Fold change vs veh, TFRC / RFU, ZDHHC17 / Fold change vs veh, ZDHHC17 / RFU, NOM1 / Fold change vs veh, NOM1 / RFU, ARL8B / Fold change vs veh, ARL8B / RFU, ZBTB11 / Fold change vs veh, ZBTB11 / RFU, TAMM41 / Fold change vs veh, TAMM41 / RFU, KIAA1704 /// LOC100996395 / Fold change vs veh, KIAA1704 /// LOC100996395 / RFU, ING1 / Fold change vs veh, ING1 / RFU, TRMT61B / Fold change vs veh, TRMT61B / RFU, FUBP3 / Fold change vs veh, FUBP3 / RFU, TP53 / Fold change vs veh, TP53 / RFU, TNKS2 / Fold change vs veh, TNKS2 / RFU, ZFP14 / Fold change vs veh, ZFP14 / RFU, ACTR2 / Fold change vs veh, ACTR2 / RFU, PPP3R1 / Fold change vs veh, PPP3R1 / RFU, PIK3R1 / Fold change vs veh, PIK3R1 / RFU, HNRNPA1 / Fold change vs veh, HNRNPA1 / RFU, RNF170 / Fold change vs veh, RNF170 / RFU, ZNF28 / Fold change vs veh, ZNF28 / RFU, RNGTT / Fold change vs veh, RNGTT / RFU, OGT / Fold change vs veh, OGT / RFU, BRD1 / Fold change vs veh, BRD1 / RFU, MARS / Fold change vs veh, MARS / RFU, ZNF655 / Fold change vs veh, ZNF655 / RFU, FAHD1 / Fold change vs veh, FAHD1 / RFU, BDP1 / Fold change vs veh, BDP1 / RFU, LRRCC1 / Fold change vs veh, LRRCC1 / RFU, ARID1A / Fold change vs veh, ARID1A / RFU, ZNF146 / Fold change vs veh, ZNF146 / RFU, ZNF330 / Fold change vs veh, ZNF330 / RFU, GPN3 / Fold change vs veh, GPN3 / RFU, C9orf123 / Fold change vs veh, C9orf123 / RFU, N4BP2L2 / Fold change vs veh, N4BP2L2 / RFU, ARFIP1 / Fold change vs veh, ARFIP1 / RFU, FAM179B / Fold change vs veh, FAM179B / RFU, BCL10 / Fold change vs veh, BCL10 / RFU, UHRF1BP1L / Fold change vs veh, UHRF1BP1L / RFU, BET1 / Fold change vs veh, BET1 / RFU, CNOT2 / Fold change vs veh, CNOT2 / RFU, ZNF268 / Fold change vs veh, ZNF268 / Fold change vs veh, ZNF507 / RFU, DGCR2 / Fold change vs veh, DGCR2 / RFU, WDSUB1 / Fold change vs veh, WDSUB1 / Fold change vs veh, HSP90B1 /// MIR3652 / RFU, ADSS / Fold change vs veh, ADSS / RFU, GK / Fold change vs veh, GK / RFU, ZNF148 / Fold change vs veh, ZNF148 / RFU, TAF9 / Fold change vs veh, TAF9 / RFU, SLC1A5 / Fold change vs veh, SLC1A5 / RFU, SLMO2 / Fold change vs veh, SLMO2 / RFU, ABCC4 / Fold change vs veh, ABCC4 / RFU, LOC101060439 /// RAP1B / Fold change vs veh, LOC101060439 /// RAP1B / RFU, RFX7 / Fold change vs veh, RFX7 / RFU, GTPBP10 / Fold change vs veh, GTPBP10 / RFU, CNEP1R1 / Fold change vs veh, CNEP1R1 / RFU, BIVM-ERCC5 /// ERCC5 / Fold change vs veh, BIVM-ERCC5 /// ERCC5 / RFU, ILF3 / Fold change vs veh, ILF3 / RFU 11762660_at / Fold change /veh 11762660_at / RFU VCAN (11757783_s_at) / Fold change /veh VCAN (11757783_s_at) / RFU DDX43 (11728927_at) / Fold change /veh DDX43 (11728927_at) / RFU KRT8 (11758188_x_at) / Fold change /veh KRT8 (11758188_x_at) / RFU NKD1 (11759106_at) / Fold change /veh NKD1 (11759106_at) / RFU SRD5A1 (11742802_a_at) / Fold change /veh SRD5A1 (11742802_a_at) / RFU TPSAB1 /// TPSB2 (11721975_s_at) / Fold change /veh TPSAB1 /// TPSB2 (11721975_s_at) / RFU GSTM3 (11746129_a_at) / Fold change /veh GSTM3 (11746129_a_at) / RFU IL23R (11737362_x_at) / Fold change /veh IL23R (11737362_x_at) / RFU TMEM51 (11727254_a_at) / Fold change /veh TMEM51 (11727254_a_at) / RFU PIWIL2 (11732686_x_at) / Fold change /veh PIWIL2 (11732686_x_at) / RFU ORM1 (11744905_x_at) / Fold change /veh ORM1 (11744905_x_at) / RFU CCDC152 (11743942_at) / Fold change /veh CCDC152 (11743942_at) / RFU ECM1 (11717891_a_at) / Fold change /veh ECM1 (11717891_a_at) / RFU IL23R (11748794_a_at) / Fold change /veh IL23R (11748794_a_at) / RFU TNFAIP8L3 (11732012_x_at) / Fold change /veh TNFAIP8L3 (11732012_x_at) / RFU MBOAT4 (11741988_at) / Fold change /veh MBOAT4 (11741988_at) / RFU 11764193_at / Fold change /veh 11764193_at / RFU TMEM53 (11763286_at) / Fold change /veh TMEM53 (11763286_at) / RFU MAGEB2 (11727129_at) / Fold change /veh MAGEB2 (11727129_at) / RFU TMEM200A (11744735_a_at) / Fold change /veh TMEM200A (11744735_a_at) / RFU CCDC152 (11751479_a_at) / Fold change /veh CCDC152 (11751479_a_at) / RFU FAM211A (11726209_a_at) / Fold change /veh FAM211A (11726209_a_at) / RFU RGS16 (11746705_a_at) / Fold change /veh RGS16 (11746705_a_at) / RFU VCAN (11755009_s_at) / Fold change /veh VCAN (11755009_s_at) / RFU RHOB (11743442_s_at) / Fold change /veh RHOB (11743442_s_at) / RFU RGS16 (11720943_a_at) / Fold change /veh RGS16 (11720943_a_at) / RFU RGS16 (11720944_at) / Fold change /veh RGS16 (11720944_at) / RFU, VPS4B / Fold change vs veh, VPS4B / RFU, CREB1 / Fold change vs veh, CREB1 / RFU, DNAJC13 / Fold change vs veh, DNAJC13 / RFU, GNAQ / Fold change vs veh, GNAQ / RFU, CDK5R1 / Fold change vs veh, CDK5R1 / RFU, ZRANB3 / Fold change vs veh, ZRANB3 / RFU, CUL4A / Fold change vs veh, CUL4A / RFU, CCNY / Fold change vs veh, CCNY / RFU, UFL1 / Fold change vs veh, UFL1 / RFU, COG3 / Fold change vs veh, COG3 / RFU, DIAPH2 / Fold change vs veh, DIAPH2 / RFU, SKA2 / Fold change vs veh, SKA2 / RFU, AFF3 / Fold change vs veh, AFF3 / RFU, LMF1 / Fold change vs veh, LMF1 / RFU, IPO11 / Fold change vs veh, IPO11 / RFU, DFFB / Fold change vs veh, DFFB / RFU, FOXP1 / Fold change vs veh, FOXP1 / RFU, CARD8 / Fold change vs veh, CARD8 / RFU, STRN3 / Fold change vs veh, STRN3 / RFU, ADK / Fold change vs veh, ADK / RFU, RASSF2 / Fold change vs veh, RASSF2 / RFU, WIPF1 / Fold change vs veh, WIPF1 / RFU, LARP1B / Fold change vs veh, LARP1B / RFU, RASA1 / Fold change vs veh, RASA1 / RFU, RB1 / Fold change vs veh, RB1 / RFU, PPFIA1 / Fold change vs veh, PPFIA1 / RFU, MAT2A / Fold change vs veh, MAT2A / RFU, CCT5 / Fold change vs veh, CCT5 / RFU, WDR92 / Fold change vs veh, WDR92 / RFU, CUX1 / Fold change vs veh, CUX1 / RFU, TTC7A / Fold change vs veh, TTC7A / RFU, TMEM135 / Fold change vs veh, TMEM135 / RFU, DEPTOR / Fold change vs veh, DEPTOR / RFU, CPM / Fold change vs veh, CPM / RFU, DNAJB6 / Fold change vs veh, DNAJB6 / RFU, CACNA2D3 / Fold change vs veh, CACNA2D3 / RFU, DTX4 / Fold change vs veh, DTX4 / RFU, TFCP2 / Fold change vs veh, TFCP2 / RFU, GMCL1 /// GMCL1P1 / Fold change vs veh, GMCL1 /// GMCL1P1 / RFU, AEBP2 / Fold change vs veh, AEBP2 / RFU, SNHG1 /// SNORD22 /// SNORD25 /// SNORD26 /// SNORD27 /// SNORD28 /// SNORD29 /// SNORD31 / Fold change vs veh, SNHG1 /// SNORD22 /// SNORD25 /// SNORD26 /// SNORD27 /// SNORD28 /// SNORD29 /// SNORD31 / Fold change (Aza/veh), C12orf56 (ProbeSet 11735607_a_at) / Fold change (ACY-1035/veh), C12orf56 (ProbeSet 11735607_a_at) / Fold change (Aza/veh), FGFR1OP (ProbeSet 11751329_s_at) / Fold change (ACY-1035/veh), FGFR1OP (ProbeSet 11751329_s_at) / Fold change (Aza/veh), VPS36 (ProbeSet 11739960_a_at) / Fold change (ACY-1035/veh), VPS36 (ProbeSet 11739960_a_at) / RFU SYPL1 (11715823_x_at) / Fold change /veh SYPL1 (11715823_x_at) / RFU IGFBP7 (11715501_s_at) / Fold change /veh IGFBP7 (11715501_s_at) / RFU REEP3 (11722064_at) / Fold change /veh REEP3 (11722064_at) / RFU IGLL1 (11728026_x_at) / Fold change /veh IGLL1 (11728026_x_at): dose or concentration left out as unconfirmed
Settings: ProbeSet 11731093_s_at; LIST B

Nc1ncn([C@@H]2O[C@H](CO)[C@@H](O)[C@H]2O)c(=O)n1 [azacitidine]
Fold change vs veh, BRD1: 0.85
